Reference: ChEMBL document CHEMBL1128946, “Novel inhibitors of influenza sialidases related to GG167 structure-activity, crystallographic and Molecular dynamics studies with 4H-pyran-2-carboxylic acid 6-carboxamides” (Bioorg Med Chem Lett, 1996)

Each compound was assayed against Neuraminidase (Influenza A virus (A/Puerto Rico/8/1934(H1N1)), UniProt P03468) (assay: Inhibition of influenza A sialidase (neuraminidase)).
Set-up: species or system Influenza A virus (strain: A/PR/8/34)
With CCCN(CCc1ccccc1)C(=O)[C@@H]1OC(C(=O)O)=C[C@H](N=C(N)N)[C@H]1NC(C)=O the IC50 was 5 nM. In the case of CCCCN(CCCC)C(=O)[C@@H]1OC(C(=O)O)=C[C@H](N=C(N)N)[C@H]1NC(C)=O, the IC50 is reported as 16 nM. In the case of CC(=O)N[C@@H]1[C@@H](N=C(N)N)C=C(C(=O)O)O[C@H]1C(=O)N(C)C, the IC50 is reported as 25 nM. Compound CNC(=O)[C@@H]1OC(C(=O)O)=C[C@H](N)[C@H]1NC(C)=O has an IC50 of 190000 nM. In the case of CCN(CC)C(=O)[C@@H]1OC(C(=O)O)=C[C@H](NC(=N)N)[C@H]1NC(C)=O, the IC50 is reported as 1 nM. CCN(CC)C(=O)[C@@H]1OC(C(=O)O)=C[C@H](N)[C@H]1NC(C)=O was tested, and the IC50 was 3 nM. CC(=O)N[C@H]1[C@H]([C@H](O)[C@H](O)CO)OC(C(=O)O)=C[C@@H]1N gave an IC50 of 300 nM. CCCN(CCc1ccc(-c2ccccc2)cc1)C(=O)[C@@H]1OC(C(=O)O)=C[C@H](N)[C@H]1NC(C)=O was tested, and the IC50 was 3 nM. CC(=O)N[C@@H]1[C@@H](N)C=C(C(=O)O)O[C@H]1C(=O)N(C)CCc1ccccc1 gave an IC50 of 320 nM. CCNC(=O)[C@@H]1OC(C(=O)O)=C[C@H](N)[C@H]1NC(C)=O gave an IC50 of 13000 nM. In the case of CCCN(CCC)C(=O)[C@@H]1OC(C(=O)O)=C[C@H](N)[C@H]1NC(C)=O, the IC50 is reported as 3 nM. In the case of CNC(=O)[C@@H]1OC(C(=O)O)=C[C@H](N=C(N)N)[C@H]1NC(C)=O, the IC50 is reported as 7000 nM. Work on CCN(CCc1ccccc1)C(=O)[C@@H]1OC(C(=O)O)=C[C@H](N)[C@H]1NC(C)=O yielded an IC50 of 5 nM. Work on CC(=O)N[C@@H]1[C@@H](N)C=C(C(=O)O)O[C@H]1C(=O)NCCc1ccccc1 yielded an IC50 of 12000 nM.
